Consider 15 substances from patent US7291594B2 (Sanwa Kagaku Kenkyusho Co., Ltd., priority 2002, dated 2007).

The target in one series is dipeptidyl peptidase IV (Homo sapiens, UniProt P27487). The series is described as follows: Resistance to dipeptidyl peptidase IV (residual cAMP activity). The series is classed as in vitro ADME. As for the experimental part:
Thereafter, the sample was extracted with a 2-fold excess volume of ethanol, centrifuged and evaporated into dryness by an evaporator. The resulting dried product was dissolved in distilled water containing 1% BSA, and its cyclic AMP production activity was measured according to Test Example 1, to calculate the residual activity (%).

In series [1] the test system is mice. The series is described as follows: Oral glucose tolerance test (OGTT) in mice after nasal administration of GLP-1 derivative. To be noted: for Blood glucose level (area under blood concentration-time curve (AUC0-20 min)) / Blood insulin level (5 minutes after glucose administration): average ± standard error. Details: Blood insulin level (5 minutes after glucose administration): unit not given here. Type of series: in vivo, mouse. On the procedure: That is, the GLP-1 derivative was administered via the nose into mice, and evaluated in an oral glucose tolerance test (OGTT) where a change in blood glucose level in the mice after tolerated with glucose was measured.
At the time of the test, the solution was diluted to a predetermined concentration with physiological saline.
(§1) Mice were anesthetized lightly with ether. […] The GLP-1 derivative solution was inhaled by breathing through the nose into the mouse.
The blood glucose level was determined by collecting several μl blood from a cut in the tail just before the test and 5, 10 and 20 minutes after glucose administration, and measuring the blood with a small blood-glucose-level measuring instrument (Glutest Ace, manufactured by Sanwa Kagaku Kenkyusho Co., Ltd.).
The blood insulin level was determined by collecting 75 μl blood from an orbital venous plexus with a heparin-treated glass capillary 5 minutes after administration of glucose, then centrifuging the blood and measuring plasma insulin by EIA (Levis Mouse Insulin Kit, manufactured by Shibayagi Co., Ltd.).

For series [2], the system named is mice. The series is described as follows: Blood glucose lowering activity in mice after subcutaneous administration and intravenous glucose. The series is classed as in vivo, mouse. As to conditions: for Blood sugar level 20 minutes after tolerance with glucose: 0.5 g/kg glucose i.v., mouse.
For a further series, the system named is mouse Langerhans islet. The series is described as follows: Insulin secretion stimulating activity using mouse Langerhans islet. Type of series: cell-based. As to conditions: 16.7 mM glucose.
For series [3], the system named is mice. The series is described as follows: OGTT in mice after nasal administration, with or without charge-regulated fat emulsion. The series is classed as in vivo, mouse. On the set-up: unit not given here. As for the experimental part: The charge-regulated fat emulsion used was prepared according to JP-A 8-27018; that is, a charge-regulated fat emulsion at a final concentration of 8% was obtained by using 2% (w/w) phosphatidyl glycerol (sodium salt), 8% (w/w) neutral oil and 90% (w/w) water.
50 μl of 8% charge-regulated fat emulsion was mixed with 3.56 μl of 1 mM 8S-GLP-1+5R solution and 146.4 μl distilled water to give 2% charge-regulated fat emulsion solution containing 8S-GLP-1+5R at a final concentration of 0.0178 mM.
as §1
The blood glucose level was determined by collecting several μl blood from a cut in the tail just before the test and 10, 20 and 30 minutes after glucose administration, and measuring glucose with a blood-glucose-level measuring instrument (Glutest Ace, manufactured by Sanwa Kagaku Kenkyusho Co., Ltd.).
The blood insulin level was determined by collecting 75 μl blood from an orbital venous plexus with a heparin-treated glass capillary 10 minutes after administration of glucose, then centrifuging the blood and measuring plasma insulin by EIA (Levis Mouse Insulin Kit, manufactured by Shibayagi Co., Ltd.).

The target in another series is T1, human GLP-1 receptor (Homo sapiens, UniProt P43220).
T1 construct: expressed in transfected cells; host or cells: CHO-K1 (Chinese hamster ovary)
T1 sequence (P43220 24-463): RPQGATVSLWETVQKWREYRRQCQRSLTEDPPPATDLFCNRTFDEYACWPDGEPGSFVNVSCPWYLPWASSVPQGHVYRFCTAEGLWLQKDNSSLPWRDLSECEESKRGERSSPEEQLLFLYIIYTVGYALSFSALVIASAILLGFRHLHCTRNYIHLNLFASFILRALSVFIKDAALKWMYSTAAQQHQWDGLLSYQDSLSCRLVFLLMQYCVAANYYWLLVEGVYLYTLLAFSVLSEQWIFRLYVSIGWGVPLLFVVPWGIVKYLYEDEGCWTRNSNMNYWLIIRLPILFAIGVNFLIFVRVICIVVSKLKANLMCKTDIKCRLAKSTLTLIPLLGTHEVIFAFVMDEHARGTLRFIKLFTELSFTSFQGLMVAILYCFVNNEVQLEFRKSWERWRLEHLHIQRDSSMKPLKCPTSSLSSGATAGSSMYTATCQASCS
The series can be described thus: Cyclic AMP-producing activity in human GLP-1 receptor-expressing CHO-K1 cells. Type of series: cell-based.

Where no end group is shown, it is not given here.

Chain of dipeptidyl peptidase IV (P27487 whole entry, species assumed): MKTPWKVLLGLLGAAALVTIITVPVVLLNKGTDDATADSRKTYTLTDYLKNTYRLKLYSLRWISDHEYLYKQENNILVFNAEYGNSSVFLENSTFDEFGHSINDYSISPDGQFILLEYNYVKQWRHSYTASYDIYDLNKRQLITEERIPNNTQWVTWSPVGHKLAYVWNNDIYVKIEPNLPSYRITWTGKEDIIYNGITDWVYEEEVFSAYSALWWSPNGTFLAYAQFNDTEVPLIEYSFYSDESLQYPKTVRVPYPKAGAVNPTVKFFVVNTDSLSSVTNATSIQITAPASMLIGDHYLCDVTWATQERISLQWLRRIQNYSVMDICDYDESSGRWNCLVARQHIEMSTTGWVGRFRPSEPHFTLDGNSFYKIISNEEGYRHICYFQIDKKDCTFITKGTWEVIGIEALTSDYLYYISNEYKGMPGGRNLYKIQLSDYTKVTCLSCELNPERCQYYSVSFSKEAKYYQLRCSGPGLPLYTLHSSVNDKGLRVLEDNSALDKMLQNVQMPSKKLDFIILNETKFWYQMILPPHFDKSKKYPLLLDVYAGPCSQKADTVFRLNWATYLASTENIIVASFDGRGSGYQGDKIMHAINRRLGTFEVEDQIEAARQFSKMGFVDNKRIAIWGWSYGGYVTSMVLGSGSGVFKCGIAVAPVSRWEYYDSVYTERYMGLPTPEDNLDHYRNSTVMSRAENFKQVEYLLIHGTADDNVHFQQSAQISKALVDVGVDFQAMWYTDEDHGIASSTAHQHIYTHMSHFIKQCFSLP

GLP-1 (7-36)—NH2 [reference compound]: the “Residual activity (%)” value amounted to 25% at dipeptidyl peptidase IV (DPP IV + (40 μU/μl, 37° C., 60 minutes)) and 100% at dipeptidyl peptidase IV (DPP IV −(not treated)). For the same substance, the entries for the “Blood glucose level (area under blood concentration-time curve (AUC0-20 min))” value (shortened to “Blood glucose level”) with mice [1] (1.07 nmol/mouse) and with mice [1] (10.7 nmol/mouse) were 697 ± 94 mg·min/dL and 399 ± 35 mg·min/dL, respectively. In addition, the “Blood insulin level (5 minutes after glucose administration)” value in the series on mice [1] (1.07 nmol/mouse) was determined as 662 ± 91; in the series on mice [1] (10.7 nmol/mouse) it was 743 ± 147. Further, the “Blood sugar level 20 minutes after tolerance with glucose” value in the series on mice [2] (5 μg/kg) was 119 mg/dL; with mice [2] (10 μg/kg) it was 103 mg/dL; in the series with mice [2] (20 μg/kg), 75 mg/dL. Besides, the “Amount of insulin secreted” value in the series with mouse Langerhans islet (assay concentration −8 log M) turned out to be 6.71 ng/islet/30 min; with mouse Langerhans islet (assay concentration −9 log M), 5.11 ng/islet/30 min; with mouse Langerhans islet (assay concentration −10 log M), 4.11 ng/islet/30 min. The “Blood insulin level (10 minutes after glucose administration)” value in the series with mice [3] (10.7 nmol/mouse, without charge-regulated fat emulsion) was 377 ± 41.

In the case of “[Ser^8, Gln^26, Asn^34]-GLP-1 (7-35)-Arg (HSEGTFTSDVSSYLEGQAAQEFIAWLVNGR; ends and bridges not checked) [8S26Q34N-GLP-1]”, the “in vitro activity of producing cyclic AMP (in words)” value with human GLP-1 receptor is recorded as “the activity was maintained”. The “Amount of cAMP produced” value was 79.2 pmol/10^5 cell/30 min with human GLP-1 receptor (concentration −8 log M); 76.1 pmol/10^5 cell/30 min with human GLP-1 receptor (concentration −9 log M); 24.2 pmol/10^5 cell/30 min with human GLP-1 receptor (concentration −10 log M); 4.7 pmol/10^5 cell/30 min with human GLP-1 receptor (concentration −11 log M); 0.6 pmol/10^5 cell/30 min with human GLP-1 receptor (concentration −12 log M). Besides, the “blood glucose lowering activity in mice (in words)” value with mice [2] is “concentration-dependent depression in blood glucose level”. Besides, the entries for the “Blood sugar level 20 minutes after tolerance with glucose” value with mice [2] (5 μg/kg), with mice [2] (10 μg/kg) and in the series on mice [2] (20 μg/kg) were 110 mg/dL, 95 mg/dL and 21 mg/dL, respectively. Also, in the series with mouse Langerhans islet (30 minutes), the “insulin secretion stimulating activity compared with naturally occurring GLP-1 (in words)” value was “stronger insulin secretion stimulating activity than that of the naturally occurring GLP-1”. Also, the “Amount of insulin secreted” value in the series on mouse Langerhans islet (assay concentration −8 log M) came out at 9.85 ng/islet/30 min; in the series on mouse Langerhans islet (assay concentration −9 log M) it was 6.61 ng/islet/30 min; in the series with mouse Langerhans islet (assay concentration −10 log M), 3.64 ng/islet/30 min.

Take “[Ser^8]-GLP-1 (7-35)-Arg-Arg-Arg-Arg-Arg-Arg-Arg-Arg-Arg-NH2 (HSEGTFTSDVSSYLEGQAAKEFIAWLVKGRRRRRRRRR-NH2) [8S-GLP-1 + 8R]”: in the series with mice [1] (1.07 nmol/mouse), the “Blood glucose level” value is 487 ± 32 mg·min/dL and the “Blood insulin level (5 minutes after glucose administration)” value is given as 1882 ± 402.

Regarding “[Ser^8]-GLP-1 (7-35)-Arg-Arg-Arg-Arg-Arg-Arg-Arg-NH2 (HSEGTFTSDVSSYLEGQAAKEFIAWLVKGRRRRRRR-NH2) [8S-GLP-1 + 6R]”, in the series with mice [1] (1.07 nmol/mouse), the “Blood glucose level” value was 559 ± 27 mg·min/dL and the “Blood insulin level (5 minutes after glucose administration)” value was 1633 ± 449.

As to “[Ser^8]-GLP-1 (7-35)-Arg-Arg-Arg-Arg-Arg-Arg-NH2 (HSEGTFTSDVSSYLEGQAAKEFIAWLVKGRRRRRR-NH2) [8S-GLP-1 + 5R]”, in the series on mice [1] (1.07 nmol/mouse), the “Blood glucose level” value is 483 ± 26 mg·min/dL and the “Blood insulin level (5 minutes after glucose administration)” value is listed as 1504 ± 250. In addition, the “Blood insulin level (10 minutes after glucose administration)” value with mice [3] (0.357 nmol/mouse, used in combination with 2% charge-regulated fat emulsion) is 560 ± 81. In the series with mice [3] (0.357 nmol/mouse, without charge-regulated fat emulsion), the “Blood insulin level (10 minutes after glucose administration)” value came to 506 ± 34.

Regarding “[Ser^8]-GLP-1 (7-35)-Arg-Arg-Arg-Arg-Arg-NH2 (HSEGTFTSDVSSYLEGQAAKEFIAWLVKGRRRRR-NH2) [8S-GLP-1 + 4R]”, the “blood glucose depressing action (in words)” value in the series on mice [1] is reported as “strongest blood glucose depressing action”. In addition, in the series on mice [1] (1.07 nmol/mouse), the “Blood glucose level” value stood at 388 ± 54 mg·min/dL and the “Blood insulin level (5 minutes after glucose administration)” value is listed as 1713 ± 430.

On to “[Ser^8]-GLP-1 (7-35)-Arg-Arg-Arg-Arg-NH2 (HSEGTFTSDVSSYLEGQAAKEFIAWLVKGRRRR-NH2) [8S-GLP-1 + 3R]”, for which, in the series on mice [1] (1.07 nmol/mouse), the “Blood glucose level” value came out at 509 ± 92 mg·min/dL and the “Blood insulin level (5 minutes after glucose administration)” value was found to be 1359 ± 318.

Consider “[Ser^8]-GLP-1 (7-35)-Arg-Arg-Arg-NH2 (HSEGTFTSDVSSYLEGQAAKEFIAWLVKGRRR-NH2) [8S-GLP-1 + 2R]”, for which, in the series with mice [1] (1.07 nmol/mouse), the “Blood glucose level” value was determined as 535 ± 58 mg·min/dL and the “Blood insulin level (5 minutes after glucose administration)” value is given as 957 ± 86.

Regarding “[Ser^8]-GLP-1 (7-35)-Arg-Lys-Lys-NH2 (HSEGTFTSDVSSYLEGQAAKEFIAWLVKGRKK-NH2) [8S-GLP-1 + 2K]”, in the series with mice [1] (1.07 nmol/mouse), the “Blood glucose level” value came out at 598 ± 63 mg·min/dL and the “Blood insulin level (5 minutes after glucose administration)” value is 862 ± 150.

For “[Ser^8]-GLP-1 (7-35)-Lys-Arg-NH2 (HSEGTFTSDVSSYLEGQAAKEFIAWLVKGKR-NH2) [8S, des36R-GLP-1 + 1KR]”, in the series on mice [1] (1.07 nmol/mouse), the “Blood glucose level” value amounted to 611 ± 51 mg·min/dL and the “Blood insulin level (5 minutes after glucose administration)” value was determined as 1349 ± 244.

For “[Ser^8]-GLP-1 (7-35)-Lys-Lys-Arg-NH2 (HSEGTFTSDVSSYLEGQAAKEFIAWLVKGKKR-NH2) [8S, des36R-GLP-1 + 2KR]”, in the series with mice [1] (1.07 nmol/mouse), the “Blood glucose level” value turned out to be 564 ± 52 mg·min/dL and the “Blood insulin level (5 minutes after glucose administration)” value is recorded as 1243 ± 309.

For “[Ser^8]-GLP-1 (7-35)-Lys-Lys-Lys-Arg-NH2 (HSEGTFTSDVSSYLEGQAAKEFIAWLVKGKKKR-NH2) [8S, des36R-GLP-1 + 3KR]”, in the series on mice [1] (1.07 nmol/mouse), the “Blood glucose level” value was 557 ± 53 mg·min/dL and the “Blood insulin level (5 minutes after glucose administration)” value turned out to be 1176 ± 233.

With “[Ser^8]-GLP-1 (7-35)-Lys-Lys-Lys-Lys-Lys-Arg-NH2 (HSEGTFTSDVSSYLEGQAAKEFIAWLVKGKKKKKR-NH2) [8S, des36R-GLP-1 + 5KR]”, in the series with mice [1], the “blood glucose depressing action (in words)” value is on record as “strongest blood glucose depressing action”. In the series on mice [1] (1.07 nmol/mouse), the “Blood glucose level” value stood at 404 ± 71 mg·min/dL and the “Blood insulin level (5 minutes after glucose administration)” value is on record as 2229 ± 346.

Turning to “[Ser^8]-GLP-1 (7-35)-Lys-Lys-Lys-Lys-Lys-Lys-Lys-Arg-NH2 (HSEGTFTSDVSSYLEGQAAKEFIAWLVKGKKKKKKKR-NH2) [8S, des36R-GLP-1 + 7KR]”, in the series on mice [1] (1.07 nmol/mouse), the “Blood glucose level” value was 457 ± 69 mg·min/dL and the “Blood insulin level (5 minutes after glucose administration)” value is 1604 ± 344.

In the case of “[Ser^8]-GLP-1 (7-35)-Lys-Lys-Lys-Lys-Lys-Lys-Lys-Lys-Lys-Lys-Arg-NH2 (HSEGTFTSDVSSYLEGQAAKEFIAWLVKGKKKKKKKKKKR-NH2) [8S, des36R-GLP-1 + 10KR]”, in the series with mice [1] (1.07 nmol/mouse), the “Blood glucose level” value amounted to 492 ± 106 mg·min/dL and the “Blood insulin level (5 minutes after glucose administration)” value is 2379 ± 520.
